Measurements from PMC3961306, “Comparison of the Cancer Gene Targeting and Biochemical Selectivities of All Targeted Kinase Inhibitors Approved for Clinical Use” (PLoS ONE, 2014).

Legend:
Experiment in all cases: Kinase profiling in a biochemical assay panel (mobility shift assays and ELISA), %-inhibition at 1 μM; selectivity entropy
[1] = biological target: panel of more than 300 wild-type and mutant kinases (313 kinase panel) (Homo sapiens, UniProt O75582); conditions: kinase MSK1; 1 μM
[2] = biological target: panel of more than 300 wild-type and mutant kinases (313 kinase panel) (Homo sapiens, UniProt P10721, V560G); conditions: kinase KIT(V560G); compound at 1 μM
Sequence of panel of more than 300 wild-type and mutant kinases (313 kinase panel) (Homo sapiens, UniProt P10721, V560G) (P10721 26-976 V560G): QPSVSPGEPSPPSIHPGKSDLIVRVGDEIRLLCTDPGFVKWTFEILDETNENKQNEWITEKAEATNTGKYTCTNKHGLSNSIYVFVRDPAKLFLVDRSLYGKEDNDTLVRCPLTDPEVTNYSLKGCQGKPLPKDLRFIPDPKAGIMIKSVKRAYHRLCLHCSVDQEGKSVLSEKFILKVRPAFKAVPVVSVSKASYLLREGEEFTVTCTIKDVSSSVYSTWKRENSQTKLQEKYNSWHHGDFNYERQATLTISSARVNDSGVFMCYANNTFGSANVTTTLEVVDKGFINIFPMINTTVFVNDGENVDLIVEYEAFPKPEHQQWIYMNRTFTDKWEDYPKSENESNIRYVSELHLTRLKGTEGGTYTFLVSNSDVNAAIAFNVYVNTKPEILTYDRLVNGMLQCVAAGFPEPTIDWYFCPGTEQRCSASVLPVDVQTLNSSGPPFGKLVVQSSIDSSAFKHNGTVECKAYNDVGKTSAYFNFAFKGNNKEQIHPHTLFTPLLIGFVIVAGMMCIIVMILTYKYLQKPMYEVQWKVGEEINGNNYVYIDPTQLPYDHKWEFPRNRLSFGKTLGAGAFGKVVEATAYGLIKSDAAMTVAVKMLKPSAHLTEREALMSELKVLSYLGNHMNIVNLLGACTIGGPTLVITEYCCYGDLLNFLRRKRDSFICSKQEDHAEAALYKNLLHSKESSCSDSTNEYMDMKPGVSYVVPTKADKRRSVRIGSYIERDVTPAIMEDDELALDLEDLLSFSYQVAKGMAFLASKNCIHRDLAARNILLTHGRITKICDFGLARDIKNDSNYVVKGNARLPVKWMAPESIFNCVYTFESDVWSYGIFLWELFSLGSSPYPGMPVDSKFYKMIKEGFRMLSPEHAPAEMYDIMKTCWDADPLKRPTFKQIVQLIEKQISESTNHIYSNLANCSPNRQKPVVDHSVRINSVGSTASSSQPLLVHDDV

[3] = biological target: panel of more than 300 wild-type and mutant kinases (313 kinase panel) (Homo sapiens, UniProt P11309); conditions: kinase PIM1; 1 μM
[4] = biological target: panel of more than 300 wild-type and mutant kinases (313 kinase panel) (Homo sapiens, UniProt P19525); conditions: kinase PKR; 1 μM
[5] = biological target: panel of more than 300 wild-type and mutant kinases (313 kinase panel) (Homo sapiens, UniProt P29597); conditions: kinase TYK2; compound at 1 μM
Sequence of panel of more than 300 wild-type and mutant kinases (313 kinase panel) (Homo sapiens, UniProt P29597) (P29597 whole entry, change not shown): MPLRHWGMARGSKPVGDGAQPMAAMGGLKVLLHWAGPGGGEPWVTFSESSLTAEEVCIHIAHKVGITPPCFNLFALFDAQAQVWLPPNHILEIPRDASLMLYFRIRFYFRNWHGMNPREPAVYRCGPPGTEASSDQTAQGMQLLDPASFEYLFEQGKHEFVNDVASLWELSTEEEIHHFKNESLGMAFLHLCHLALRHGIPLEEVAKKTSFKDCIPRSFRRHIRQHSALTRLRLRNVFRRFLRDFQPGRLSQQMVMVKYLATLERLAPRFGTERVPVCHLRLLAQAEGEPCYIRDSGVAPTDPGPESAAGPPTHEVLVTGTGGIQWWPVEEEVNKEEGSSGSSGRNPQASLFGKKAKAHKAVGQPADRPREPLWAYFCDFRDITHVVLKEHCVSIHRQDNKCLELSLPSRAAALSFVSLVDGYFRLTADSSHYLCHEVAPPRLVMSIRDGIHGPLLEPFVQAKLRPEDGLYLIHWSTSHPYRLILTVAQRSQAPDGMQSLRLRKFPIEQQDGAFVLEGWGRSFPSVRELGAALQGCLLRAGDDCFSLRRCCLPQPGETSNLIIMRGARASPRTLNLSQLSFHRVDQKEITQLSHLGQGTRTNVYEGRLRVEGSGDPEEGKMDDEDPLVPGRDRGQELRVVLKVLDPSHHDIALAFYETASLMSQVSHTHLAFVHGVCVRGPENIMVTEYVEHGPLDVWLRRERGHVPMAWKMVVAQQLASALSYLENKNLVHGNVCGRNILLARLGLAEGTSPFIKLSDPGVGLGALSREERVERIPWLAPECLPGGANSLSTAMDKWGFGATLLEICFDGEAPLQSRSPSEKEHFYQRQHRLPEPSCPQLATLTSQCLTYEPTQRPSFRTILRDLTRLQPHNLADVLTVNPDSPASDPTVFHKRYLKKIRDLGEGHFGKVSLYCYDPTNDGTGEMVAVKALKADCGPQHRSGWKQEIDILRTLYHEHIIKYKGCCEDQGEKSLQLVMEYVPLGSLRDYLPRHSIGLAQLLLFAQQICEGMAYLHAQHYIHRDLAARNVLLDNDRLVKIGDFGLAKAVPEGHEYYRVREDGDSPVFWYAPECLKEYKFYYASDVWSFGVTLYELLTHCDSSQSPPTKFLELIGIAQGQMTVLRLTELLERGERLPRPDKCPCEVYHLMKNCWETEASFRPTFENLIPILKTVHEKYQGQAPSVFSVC

[6] = biological target: panel of more than 300 wild-type and mutant kinases (313 kinase panel) (Homo sapiens, UniProt P36894); conditions: kinase BMPR1A; 1 μM compound
[7] = biological target: panel of more than 300 wild-type and mutant kinases (313 kinase panel) (Homo sapiens, UniProt P41240); conditions: kinase CSK; compound at 1 μM
Sequence of panel of more than 300 wild-type and mutant kinases (313 kinase panel) (Homo sapiens, UniProt P41240) (P41240 whole entry, change not shown): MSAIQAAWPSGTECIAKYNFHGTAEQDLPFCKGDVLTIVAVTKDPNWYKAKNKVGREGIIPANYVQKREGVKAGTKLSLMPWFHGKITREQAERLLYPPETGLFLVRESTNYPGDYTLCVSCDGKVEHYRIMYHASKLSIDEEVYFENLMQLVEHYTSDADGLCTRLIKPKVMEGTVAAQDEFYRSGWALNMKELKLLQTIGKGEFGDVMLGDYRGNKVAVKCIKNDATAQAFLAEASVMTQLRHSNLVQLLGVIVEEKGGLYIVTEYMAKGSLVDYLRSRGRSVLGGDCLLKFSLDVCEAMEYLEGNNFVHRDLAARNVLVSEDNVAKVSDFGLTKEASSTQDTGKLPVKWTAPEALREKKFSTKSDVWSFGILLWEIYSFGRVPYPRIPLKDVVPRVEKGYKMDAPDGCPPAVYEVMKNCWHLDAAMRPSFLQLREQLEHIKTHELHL

[8] = biological target: panel of more than 300 wild-type and mutant kinases (313 kinase panel) (Homo sapiens, UniProt P50613); conditions: kinase CDK7/CycH/MAT1; 1 μM compound
Sequence of panel of more than 300 wild-type and mutant kinases (313 kinase panel) (Homo sapiens, UniProt P50613) (P50613 whole entry, change not shown): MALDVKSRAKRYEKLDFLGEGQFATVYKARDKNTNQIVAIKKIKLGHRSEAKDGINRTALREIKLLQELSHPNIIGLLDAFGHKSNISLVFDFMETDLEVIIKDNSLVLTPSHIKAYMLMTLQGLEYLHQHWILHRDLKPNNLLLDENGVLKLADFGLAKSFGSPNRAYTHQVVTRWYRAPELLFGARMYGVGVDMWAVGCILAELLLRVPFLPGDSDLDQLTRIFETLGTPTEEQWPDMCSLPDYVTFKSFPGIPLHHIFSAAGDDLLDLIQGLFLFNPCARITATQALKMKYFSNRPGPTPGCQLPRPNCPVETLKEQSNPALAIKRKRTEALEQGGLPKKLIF

[9] = biological target: T1, panel of more than 300 wild-type and mutant kinases (313 kinase panel) (Homo sapiens, UniProt P52333); conditions: kinase JAK3; compound at 1 μM
T1 sequence (P52333 1-1124): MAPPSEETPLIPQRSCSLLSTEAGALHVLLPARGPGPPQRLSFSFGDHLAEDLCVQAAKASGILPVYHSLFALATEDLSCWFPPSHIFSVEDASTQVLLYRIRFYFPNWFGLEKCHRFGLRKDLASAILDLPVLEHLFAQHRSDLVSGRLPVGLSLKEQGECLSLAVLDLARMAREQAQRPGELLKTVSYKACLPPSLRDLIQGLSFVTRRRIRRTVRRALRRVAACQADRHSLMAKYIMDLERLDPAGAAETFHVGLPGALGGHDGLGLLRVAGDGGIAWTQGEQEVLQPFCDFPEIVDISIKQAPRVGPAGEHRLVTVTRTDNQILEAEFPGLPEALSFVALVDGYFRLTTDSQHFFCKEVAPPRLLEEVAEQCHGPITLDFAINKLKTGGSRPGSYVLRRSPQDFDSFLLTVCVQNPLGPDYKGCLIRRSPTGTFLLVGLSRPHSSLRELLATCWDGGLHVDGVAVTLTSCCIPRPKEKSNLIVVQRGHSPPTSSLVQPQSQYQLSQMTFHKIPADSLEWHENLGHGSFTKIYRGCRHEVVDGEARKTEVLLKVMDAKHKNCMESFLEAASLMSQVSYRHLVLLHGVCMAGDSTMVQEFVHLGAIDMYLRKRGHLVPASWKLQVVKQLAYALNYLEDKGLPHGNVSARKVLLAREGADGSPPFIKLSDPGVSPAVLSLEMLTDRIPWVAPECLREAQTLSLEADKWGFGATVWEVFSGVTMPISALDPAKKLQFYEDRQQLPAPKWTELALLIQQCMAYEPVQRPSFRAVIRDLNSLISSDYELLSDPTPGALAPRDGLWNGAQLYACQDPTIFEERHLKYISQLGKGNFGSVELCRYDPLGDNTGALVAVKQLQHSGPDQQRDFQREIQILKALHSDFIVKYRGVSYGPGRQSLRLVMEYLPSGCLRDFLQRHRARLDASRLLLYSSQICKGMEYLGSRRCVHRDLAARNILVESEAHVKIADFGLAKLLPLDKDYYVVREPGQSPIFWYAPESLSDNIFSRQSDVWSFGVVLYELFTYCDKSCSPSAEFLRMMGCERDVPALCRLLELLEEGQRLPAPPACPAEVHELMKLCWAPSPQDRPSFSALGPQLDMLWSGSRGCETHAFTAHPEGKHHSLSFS

[10] = biological target: panel of more than 300 wild-type and mutant kinases (313 kinase panel) (Homo sapiens, UniProt P53667); conditions: kinase LIMK1; compound at 1 μM
[11] = biological target: panel of more than 300 wild-type and mutant kinases (313 kinase panel) (Homo sapiens, UniProt P54756); conditions: kinase EPHA5; compound at 1 μM
[12] = biological target: panel of more than 300 wild-type and mutant kinases (313 kinase panel) (Homo sapiens, UniProt Q16816); conditions: kinase PHKG1; 1 μM
Sequence of panel of more than 300 wild-type and mutant kinases (313 kinase panel) (Homo sapiens, UniProt Q16816) (Q16816 whole entry, change not shown): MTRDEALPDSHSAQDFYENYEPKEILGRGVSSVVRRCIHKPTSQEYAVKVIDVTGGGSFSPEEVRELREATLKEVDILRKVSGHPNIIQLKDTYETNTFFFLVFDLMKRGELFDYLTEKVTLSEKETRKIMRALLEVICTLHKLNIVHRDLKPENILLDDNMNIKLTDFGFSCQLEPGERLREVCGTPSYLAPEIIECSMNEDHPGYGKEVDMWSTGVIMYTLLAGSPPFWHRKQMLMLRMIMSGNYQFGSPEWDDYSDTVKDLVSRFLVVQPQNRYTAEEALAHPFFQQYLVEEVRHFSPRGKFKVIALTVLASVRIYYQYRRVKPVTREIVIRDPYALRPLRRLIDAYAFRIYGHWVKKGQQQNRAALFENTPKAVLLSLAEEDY

[13] = biological target: panel of more than 300 wild-type and mutant kinases (313 kinase panel) (Homo sapiens, UniProt Q8IY84); conditions: kinase MGC42105; 1 μM

| Structure (SMILES) | %-inhibition of MSK1 [1] | %-inhibition of KIT(V560G) [2] | %-inhibition of PIM1 [3] | %-inhibition of PKR [4] | %-inhibition of TYK2 [5] | %-inhibition, BMPR1A [6] | %-inhibition of CSK [7] | %-inhibition, CDK7/CycH/MAT1 [8] | %-inhibition of JAK3 [9] | %-inhibition of LIMK1 [10] | %-inhibition of EPHA5 [11] | %-inhibition of PHKG1 [12] | %-inhibition of MGC42105 [13] |
| --- | --- | --- | --- | --- | --- | --- | --- | --- | --- | --- | --- | --- | --- |
| COc1cc2nccc(Oc3ccc(NC(=O)C4(C(=O)Nc5ccc(F)cc5)CC4)cc3)c2cc1OC [cabozantinib] | -2% | 96% | -10% | -4.3% | -3.68% | 2.27% | 60% | -10% | 2.34% | 51% | 99% | 53% | -8% |
| C[C@@H](Oc1cc(-c2cnn(C3CCNCC3)c2)cnc1N)c1c(Cl)ccc(F)c1Cl [crizotinib] | -0.641% | 0.851% | -7% | 6% | 21% | 41% | 9% | 58% | 77% | 94% | 71% | 2.74% | -6% |
| CO[C@H]1C[C@@H]2CC[C@@H](C)[C@@](O)(O2)C(=O)C(=O)N2CCCC[C@H]2C(=O)O[C@H]([C@H](C)C[C@@H]2CC[C@@H](OCCO)[C@H](OC)C2)CC(=O)[C@H](C)/C=C(\C)[C@@H](O)[C@@H](OC)C(=O)[C@H](C)C[C@H](C)/C=C/C=C/C=C/1C [everolimus] | -2% | -6% | -9% | -8.45% | -7% | -3.21% | -7% | -6% | -4.43% | 3.28% | -1.69% | 0.522% | -4% |
| O=S(=O)(c1cccc2cnccc12)N1CCCNCC1 [fasudil] | 37% | 0.322% | 3% | -4.39% | 6% | -10% | -3.28% | 7.49% | 4.46% | -7% | -3.43% | 2.6% | 3.31% |
| CNC(=O)c1cc(Oc2ccc(NC(=O)Nc3ccc(Cl)c(C(F)(F)F)c3)c(F)c2)ccn1 [regorafenib] | 1% | 99% | -9% | -4.48% | -3.68% | -4.65% | 28% | -3% | 31% | 66% | 97% | 8% | -22% |
| CO[C@H]1C[C@@H]2CC[C@@H](C)[C@@](O)(O2)C(=O)C(=O)N2CCCC[C@H]2C(=O)O[C@H]([C@H](C)C[C@@H]2CC[C@@H](OC(=O)C(C)(CO)CO)[C@H](OC)C2)CC(=O)[C@H](C)/C=C(\C)[C@@H](O)[C@@H](OC)C(=O)[C@H](C)C[C@H](C)/C=C/C=C/C=C/1C [temsirolimus] | 0% | -5% | -8% | -14% | -6.58% | -9% | -1.56% | -8% | -2% | -5% | -3.79% | 1.57% | -11% |
| CC(=O)Nc1cccc(-n2c(=O)n(C3CC3)c(=O)c3c(Nc4ccc(I)cc4F)n(C)c(=O)c(C)c32)c1 [trametinib] | -0.531% | 1% | 4.44% | 1.13% | 2.16% | 2.14% | -2.83% | -6% | 6% | -1.84% | -2.67% | -2.24% | 1.39% |
